# Entries after “also recorded” stand apart in the source; their conditions may differ.
# Legend:
# [1] = Metabolite profiling and identification in plasma, urine and feces; format: in vivo, human; conditions: for Mean Feces Region of Interest: components of one region share its value
# Procedure: (§1) Whole blood and plasma samples for total radioactivity and plasma sample concentrations of ziritaxestat were collected before dosing and at 0, 0.25, 0.5, 1, 1.5, 2, 3, 4, 6, 8, 10, 24, 48, 72, 96, 120, 144, 168, 192, and 216 hours after dosing. Plasma samples for metabolite identification and quantification were collected before dosing and at 1, 3, 6, 24, 48, 72, 96, and 144 hours after dosing. Urine and fecal samples for total radioactivity, metabolite identification, and quantification were collected before dosing through to 216 hours after dosing. Structural identification was attempted on any radioactive component that represented ≥10% of the circulating radioactivity in plasma or that accounted for >10% of the dose in ≥1 fecal and urine samples.
# CYP3A4 [2] = conditions: human recombinant CYP, background data in introduction, no reference given, cited from earlier work
# CYP3A4 [3] = conditions: 0.1 to 30 μM incubated with human hepatocytes; background data in introduction, no reference given; cited from earlier work
# CYP2C8 = conditions: background data in introduction, no reference given, cited from earlier work
# CYP1A2 = conditions: 0.1 to 30 μM incubated with human hepatocytes; background data in introduction, no reference given; cited from earlier work
# [4] = Safety assessments (AEs, laboratory tests, vital signs, ECG); format: in vivo, human; conditions: parts 1 and 2
# Procedure: Safety assessments included adverse events (AEs), clinical laboratory tests (clinical chemistry, hematology, urinalysis), vital signs, 12‐lead electrocardiograms (ECGs), and physical examinations. AEs were recorded from the first dose until study discharge, and at the follow‐up call. Any adverse experiences recorded between the time of informed consent and the first dose were recorded with the medical history. AEs and medications were coded using the Medical Dictionary for Regulatory Activities version 21.1.
# [5] = Part 1 absolute bioavailability: plasma PK after oral 600 mg ziritaxestat and 15-minute IV infusion of 100 μg 14C-ziritaxestat microtracer; format: in vivo, human; conditions: for F AUCt (absolute bioavailability) / F AUC∞ (absolute bioavailability): oral 600 mg vs IV 100 μg 14C-ziritaxestat; for F AUCt (absolute bioavailability): dose-normalized AUCt; for F AUC∞ (absolute bioavailability): dose-normalized AUC∞
# Source text: Part 1 of the study was designed to assess the absolute bioavailability of ziritaxestat. An IV microtracer, a well‐established technique, was used.[21], [22] This design involved a 15‐minute infusion of a subtherapeutic 100‐μg IV ziritaxestat dose labeled with a microtracer (≤1000 nCi) of ^14C radioactivity, dosed at an anticipated time to reach maximum plasma concentration (tmax) of a preceding unlabeled therapeutic (600‐mg) oral dose (administered as three 200‐mg film‐coated tablets). The low‐dose IV formulation means that nonclinical local tolerability and IV toxicology studies can generally be avoided,[21], [22] which can be preferable when developing a single, fit‐for‐purpose IV formulation. Administering the IV microdose at tmax of the unlabeled therapeutic (600‐mg) oral dose of ziritaxestat ensured that the PK of the microdose remained representative of the therapeutic dose.
# Given the low (microgram) levels of ziritaxestat expected in plasma, liquid chromatography–accelerated mass spectrometry (LC‐AMS) was used to quantify levels of ^14C‐ziritaxestat, whereas accelerated mass spectrometry (AMS) was used to quantify total radioactivity following the IV dose, achieving a lower limit of quantification (LLOQ) of 0.110 ng eq/mL and 0.0069 ng eq/mL, respectively. Concentrations of unlabeled parent in plasma were measured using liquid chromatography with tandem mass spectrometry (LC‐MS/MS), with an LLOQ of 1.00 ng/mL.
# Subjects were admitted to the clinic on day –1 (the evening before dosing) and remained onsite until 72 hours after dosing. On the morning of day 1, 30 minutes after the start of a standard breakfast, subjects received a single oral dose of 600‐mg ziritaxestat, followed 3.25 hours later by a 15‐minute IV infusion of 100 μg of ^14C‐ziritaxestat. Plasma samples for ziritaxestat concentrations were collected before dosing and at 0.25, 0.5, 1, 1.5, 2, 3, 3.25, 4, 5, 6, 8, 10, 12, 24, 48, and 72 hours after the oral dose. In addition, plasma samples for ^14C‐ziritaxestat, total radioactivity, and metabolite profiling were collected at 3.25, 3.33, 3.5, 3.75, 4, 4.25, 4.75, 5.25, 6, 7, 8, 10, 12, 24, 48, and 72 hours after the oral dose.
# (§2) Concentrations of ziritaxestat in human lithium heparin plasma samples were determined for both study parts by using an LC‐MS/MS method validated according to the requirements of the US Food and Drug Administration's Guidance for Industry and the European Medicines Agency's guidance on bioanalytical methods. The method involved isolating ziritaxestat and ziritaxestat‐d8 (internal standard) from 20 μL of human lithium heparin plasma by solid‐phase extraction performed on a CUBCX1 100‐mg 1‐mL cartridge (Screening Devices, Amersfoort, Netherlands). The extract sample was then evaporated to dryness under a stream of nitrogen at +50°C. The residue was reconstituted with 0.3 mL of a mixture of 25% acetonitrile in purified water containing 0.01% of ammonium hydroxide. Ten microliters of the clear supernatant were injected into the high‐performance liquid chromatography system (Shimadzu, Kyoto, Japan), operating in isocratic elution mode. Chromatographic separation was performed on an XBridge C18 column (100 × 4.6 mm, 3.5 μm; Waters Corp., Milford, Massachusetts). The aqueous mobile phase consisted of a mixture of 46.75% acetonitrile in purified water containing 0.02% of ammonium hydroxide. An API 4000 LC‐MS/MS system (SCIEX, Toronto, Canada) equipped with a TurboIonSpray probe operating in multiple‐reaction monitoring mode in positive mode was used for quantification. The precursor‐to‐product ion pairs at the mass‐to‐charge ratio were 589 to 256 and 597 to 264 for ziritaxestat and its internal standard, respectively.
# Total radioactivity plasma concentrations for part 1 were determined using AMS analysis on a 1‐MV multielement accelerated mass spectrometer, model 4110 Bo (High Voltage Engineering Europa, Amersfoort, the Netherlands). […]
# CYP3A4/5 = conditions: human liver microsomes and probe substrates; weak inhibition; background data in introduction, no reference given; read-out: half maximal inhibitory concentration; cited from earlier work
# [6] = Estimation of oral bioavailability fractions (fa, fg, fh); format: in vivo, human
# Source text: Contribution to clearance from nonhepatic routes was assumed to be minimal. fg was estimated assuming Fg=F/Fa/Fh .
# [7] = Part 2: plasma and whole blood PK after a single oral 600-mg dose of 14C-ziritaxestat; format: in vivo, human; conditions: ziritaxestat in plasma, single oral 600 mg 14C-ziritaxestat
# Source text: Part 2 of the study assessed the mass balance, routes of elimination, and metabolite profile of ziritaxestat following a single, oral 600‐mg dose (administered as two 300‐mg active pharmaceutical ingredients‐in‐capsule) of ^14C‐ziritaxestat.
# Subjects were admitted on the evening before dosing (day –1 of part 2), allowing a minimum 7‐day washout in oral drug administration between parts 1 and 2. On the morning of day 1, subjects received a single oral dose of ^14C‐ziritaxestat, equivalent to 600 mg of ziritaxestat. […] Subjects stayed in the clinical study center no longer than day 10 (216 hours after dosing).
# as §1
# Total radioactivity was measured via liquid scintillation counting, achieving an LLOQ of 306 ng eq/mL (plasma), 216 ng eq/mL (whole blood), 17 ng eq/g (urine), and 161 ng eq/g (feces). Concentrations of parent in plasma were measured using LC‐MS/MS, with an LLOQ of 1.00 ng/mL.
# as §2
# PK analysis was performed using standard noncompartmental methods (Phoenix WinNonlin version 9.4; Pharsight, Certara, Princeton, New Jersey). […] In part 2, the following mass balance parameters were determined: cumulative amount of total radioactivity excreted in urine up to t, cumulative amount of total radioactivity excreted in feces up to t, amount of total radioactivity excreted in urine as a percentage of administered radioactivity, and amount of total radioactivity excreted in feces as a percentage of administered radioactivity. AUC was calculated by the linear up‐logarithmic down‐trapezoid rule, CL was calculated as dose/AUC, Vd(area) was calculated as CL/λz, and F was calculated as dose‐normalized ziritaxestat oral AUC/^14C‐ziritaxestat IV AUC.
# [8] = feces, single oral 600 mg 14C-ziritaxestat
# [9] = human, ziritaxestat in plasma, oral 600 mg, n = 6, mean (SD)
# [10] = mean (SD), listed as ziritaxestat
structure (smiles),measurement,setting,value
CCc1nc2c(C)cc(N3CCN(CC(=O)O)CC3)cn2c1N(C)c1nc(-c2ccc(F)cc2)c(C#N)s1 [M533],Mean Feces Region of Interest,[1]; [8],25.3%
CCc1nc2c(C)cc(N3CCN(CC(=O)NCC(=O)O)CC3)cn2c1N(C)c1nc(-c2ccc(F)cc2)c(C#N)s1 [M590],Mean Feces Region of Interest,[1]; [8],25.3%
CCc1nc2c(C)cc(N3CCN(CC(=O)N4CC(O)C4)CC3)cn2c1N(C)c1nc(-c2ccc(F)cc2)c(C#N)s1 [Ziritaxestat],Enzyme primarily responsible for metabolism,CYP3A4 [2],primarily metabolized by CYP3A4
same,Contribution to metabolism from other phase 1 enzymes (maximum),CYP3A4 [2]; enzymes other than CYP3A4,≤ 2.1%
same,Parent as share of total radioactivity (drug-related material) recovered in feces,"[1]; feces, oral 600 mg 14C-ziritaxestat",17.6%
same,Mean Feces Region of Interest,[1]; [8],17.6%
same,Share of circulating radioactivity in plasma,"[1]; plasma, metabolite profile / mass spectrometry analysis, oral 600 mg 14C-ziritaxestat",76%
same,Mean Plasma Region of Interest,"[1]; plasma, single oral 600 mg 14C-ziritaxestat",76.2
same,CYP3A4 messenger RNA expression (induction potential),CYP3A4 [3],Increases in messenger RNA expression
same,half maximal inhibitory concentration fold shift,"CYP2C8; CYP2C8-mediated metabolism, preincubation with ziritaxestat in the absence and presence of NADP, time-dependent inhibition",2.49
same,IC50,"CYP2C8; human liver microsomes and probe substrates, weak inhibition, read-out: half maximal inhibitory concentration",2.1 µM
same,CYP1A2 messenger RNA expression (induction potential),CYP1A2,Increases in messenger RNA expression
same,"Effects on laboratory, vital signs, or ECG parameters",[4],no clinically meaningful effects
same,Intensity of TEAEs,[4],mild
same,Relation of TEAEs to treatment as assessed by the investigator,[4],not considered to be related to the study drug; also recorded: not treatment related
same,Serious AEs or AEs leading to discontinuation or interruption of dosing,[4]; healthy male subjects,no serious AEs or AEs leading to discontinuation or interruption of dosing
same,Number of treatment-emergent AEs (TEAEs),[4]; reported in 5 subjects,7
same,AUC(0-inf),[5]; [9],40000 ng·h/mL
same,AUC(0-t),[5]; [9],40000 ng·h/mL
same,Cmax,[5]; [9],8400 ng/mL
same,half-life,[5]; [9],7 h
same,Tmax,"[5]; human, ziritaxestat in plasma, oral 600 mg, n = 6, median (range)",3.25 h
same,F AUCt (absolute bioavailability),[5]; mean (SD),54.4 (5.2) %
same,F AUCt (absolute bioavailability),[5]; [10],54%
same,F AUC∞ (absolute bioavailability),[5]; mean (SD),51.1 (4.8) %
same,F AUC∞ (absolute bioavailability),[5]; [10],51%
same,CL/F,"[5]; ziritaxestat in plasma, oral 600 mg, n = 6, mean (SD)",16.3 (4.6) L/h
same,IC50,CYP3A4/5,3.7 µM
same,fg (fraction of drug surviving gut metabolism),[6]; Fg = F/Fa/Fh,69%
same,fh (fraction of drug surviving hepatic elimination),"[6]; Fh = 1 - Eh, Eh = ClIV/Qh, Qh 1450 mL/min",91%
same,Hepatic extraction ratio (first-pass loss),"[6]; human, in vivo",9%
same,frem (fraction of drug remaining to be eliminated),"[6]; human, in vivo",14%
same,AUC(0-inf),"[7]; human, n = 5, mean (SD)",50500 ng·h/mL
same,half-life,"[7]; human, n = 5, mean (SD)",10.6 h
same,AUC(0-t),"[7]; human, n = 6, mean (SD)",49100 ng·h/mL
same,Cmax,"[7]; human, n = 6, mean (SD)",10700 ng/mL
same,AUC,"[7]; human, n = 6, mean (SD), read-out: AUC24",47900 ng·h/mL
same,Tmax,"[7]; human, n = 6, median (range)",1.75 h
same,CL/F,"[7]; n = 5, mean (SD)",13.2 (4.6) [n = 5] ^c L/h
